Here are results for 13 molecules from US20210284638A1 (Saint Louis University, priority 2018, published 2021).

For orientation: IC50 means the concentration at which inhibition is half-maximal.

Format in all cases: binding
Experiment [1] concerns the target T1, Recombinant human integrin α5β1 (Homo sapiens, UniProt P05556+P08648).
T1 construct: purchased R&D Systems 3230-A5
Description: Solid Phase Receptor Assay (SPRA) for α5β1 function. As to conditions: plate-bound human fibronectin. As for the experimental part:
A. Solid Phase Receptor Assay (SPRA) for α5β1 Function
Wells were washed 3 times with 150 μL TBS+ and then 150 μL of blocking buffer (TBS+ with 1% bovine serum albumin, Sigma A7906) was added. The plate was incubated for 1 hr at 37° C. and then washed 3× with TBS+ buffer. […] Compounds were diluted to 20 μM and then 1 μL was added to each well of the plate according to a standard template with each sample repeated in triplicate. After incubation for two hours at room temperature, the plate was washed 3× with 150 μL of TBS+ buffer. To each well, 50 μL of biotinylated anti-α5 antibody (R&D Systems, BAF1864) at 0.5 μg/mL in TBS+/0.1% BSA were added and the plate covered and incubated for 1 hr at room temperature. After washing the plate 3× with 150 μL of TBS+ buffer, 50 μL of streptavidin-conjugated horseradish peroxidase (R&D Systems, DY998) diluted in TBS+ blocking buffer were added to the wells and the plate incubated for 20 min at room temperature. The plate was washed 3× with TBS+ buffer followed by 50 μL of room temperature TMB substrate (Sigma, T4444) added to each well in the dark and the plate incubated for 25 min at room temperature. 25 μL of 1.0 M phosphoric acid was added as a stop solution and the plates were read at 450 nm using a Spectramax plate reader.

Experiment [2] has as its target T2, Recombinant human integrin αVβ6 (Homo sapiens, UniProt P06756+P18564).
T2 construct: purchased R&D Systems 3817-AV
Description: Solid Phase Receptor Assay (SPRA) for αVβ6 function. The settings on record: plate-bound human LAP. The protocol:
E. Solid Phase Receptor Assay (SPRA) for αVβ6 Function
Wells were washed 3 times with 150 μL TBS+, and then 150 μL of blocking buffer (TBS+ with 1% bovine serum albumin, Sigma A7906) was added. The plate was incubated for 1 hr at 37° C., and then washed 3× with TBS+ buffer. […] Compounds were diluted to 20 μM and then 1 μL was added to each well of the plate according to a standard template with each sample repeated in triplicate. After incubation for two hours at room temperature, the plate was washed 3× with 150 μL of TBS+ buffer. To each well, 50 μL of biotinylated anti-αV antibody (R&D Systems, BAF1219) at 0.5 μg/mL in TBS+/0.1% BSA were added and the plate was covered and incubated for 1 hr at room temperature. After washing the plate 3× with 150 μL of TBS+ buffer, 50 μL of streptavidin-conjugated horseradish peroxidase (R&D Systems, DY998) diluted in TBS+ blocking buffer were added to the wells and the plate incubated for 20 min at room temperature. The plate was washed 3× with TBS+ buffer followed by 50 μL of TMB substrate (Sigma T4444) added to each well in the dark and the plate incubated for 10 min at room temperature. 25 μL of 1.0 M phosphoric acid was added as a stop solution and the plates were read at 450 nm using a Spectramax plate reader.

In experiment [3] the target is T3, Recombinant human integrin αVβ8 (Homo sapiens, UniProt P06756+P26012).
T3 construct: purchased R&D Systems 4135-AV
Description: Solid Phase Receptor Assay for αVβ8 function. As to conditions: plate-bound human LAP; read-out: αVβ8 SPRA IC50. As for the experimental part: F. Solid Phase Receptor Assay (SFRA) for αVβ8 Function
Wells were washed 3 times with 150 μL TBS+ and then 150 μL of blocking buffer (TBS+ with 1% bovine serum albumin, Sigma A7906) was added. The plate was incubated for 1 hr at 37° C. and then washed 3× with TBS+. […] Compounds were diluted to 20 μM and 1 μL was added to each well of the plate according to a standard template with each sample repeated in triplicate. After incubation for two hours at room temperature, the plate was washed 3× with 150 μL of TBS+. To each well, 50 μL of biotinylated anti-αV antibody (R&D Systems, BAF1219) at 1 μg/mL in TBS+/0.1% BSA were added and the plate was covered and incubated for 1 hr at room temperature. After washing the plate 3× with 150 μL of TBS+ buffer, 50 μL of streptavidin-conjugated horseradish peroxidase (R&D Systems, DY998) diluted in TBS+ blocking buffer were added to the wells and the plate incubated for 20 min at room temperature. The plate was washed 3× with TBS+ followed by 50 μL of TMB substrate (Sigma T4444) added to each well in the dark and the plate incubated for 10 min at room temperature. 25 μL of 1.0 M phosphoric acid was added as a stop solution and the plates were read at 450 nm using a Spectramax plate reader.

In experiment [4] the target is T4, Recombinant human integrin αvβ1 (Homo sapiens, UniProt P05556+P06756).
T4 construct: purchased R&D Systems 6579-AV
Description: Solid Phase Receptor Assay (SPRA) for αVβ1 function. The settings on record: plate-bound human fibronectin. As for the experimental part:
B. Solid Phase Receptor Assay (SPRA) for αVβ1 Function
Wells were washed 3 times with 150 μL TBS+ and then 150 μL of blocking buffer (TBS+ with 1% bovine serum albumin, Sigma A7906) was added. The plate was incubated for 1 hr at 37° C. and then washed 3× with TBS+ buffer. […] Compounds were diluted to 20 μM and 1 μL was added to each well of the plate according to a standard template with each sample repeated in triplicate. After incubation for two hours at room temperature, the plate was washed 3× with 150 μL of TBS+ buffer. To each well, 50 μL of biotinylated anti-αV antibody (R&D Systems, BAF1219) at 1 μg/mL in TBS+/0.1% BSA were added and the plate covered and incubated for 1 hr at room temperature. After washing the plate 3× with 150 μL of TBS+ buffer, 50 μL of streptavidin-conjugated horseradish peroxidase (R&D Systems, DY998) diluted in TBS+ blocking buffer were added to the wells and the plate incubated for 20 min at room temperature. The plate was washed 3× with TBS+ buffer followed by 50 μL of TMB substrate (Sigma, T4444) added to each well in the dark and the plate incubated for 25 min at room temperature. 25 μL of 1.0 M phosphoric acid was added as a stop solution and the plates were read at 450 nm using a Spectramax plate reader.

T4 sequence (P06756 31-992 limits assumed): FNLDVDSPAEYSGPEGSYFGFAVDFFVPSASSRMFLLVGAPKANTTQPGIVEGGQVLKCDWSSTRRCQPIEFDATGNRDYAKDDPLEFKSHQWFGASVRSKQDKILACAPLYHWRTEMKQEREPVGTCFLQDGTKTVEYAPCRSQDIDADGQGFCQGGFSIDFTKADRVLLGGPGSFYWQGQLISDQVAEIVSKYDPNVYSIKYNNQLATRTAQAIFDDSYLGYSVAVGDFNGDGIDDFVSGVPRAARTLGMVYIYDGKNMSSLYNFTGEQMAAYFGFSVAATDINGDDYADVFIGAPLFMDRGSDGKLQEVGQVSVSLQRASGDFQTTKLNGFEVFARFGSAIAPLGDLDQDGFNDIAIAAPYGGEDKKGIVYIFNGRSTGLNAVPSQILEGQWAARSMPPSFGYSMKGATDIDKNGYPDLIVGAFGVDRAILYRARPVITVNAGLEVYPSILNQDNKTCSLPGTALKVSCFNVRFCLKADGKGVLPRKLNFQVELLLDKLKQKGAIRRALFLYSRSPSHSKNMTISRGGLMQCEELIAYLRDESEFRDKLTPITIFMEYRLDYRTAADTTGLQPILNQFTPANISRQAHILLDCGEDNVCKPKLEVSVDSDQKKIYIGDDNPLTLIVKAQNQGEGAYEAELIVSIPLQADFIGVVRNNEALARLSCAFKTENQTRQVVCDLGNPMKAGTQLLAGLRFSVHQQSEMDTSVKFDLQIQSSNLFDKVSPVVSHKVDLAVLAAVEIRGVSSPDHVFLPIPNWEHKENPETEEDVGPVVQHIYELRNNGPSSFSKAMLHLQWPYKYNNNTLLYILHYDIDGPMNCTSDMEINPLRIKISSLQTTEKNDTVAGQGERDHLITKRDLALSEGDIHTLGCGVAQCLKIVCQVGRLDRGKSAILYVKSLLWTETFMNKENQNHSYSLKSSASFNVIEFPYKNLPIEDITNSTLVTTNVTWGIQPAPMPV
T4 sequence (P05556 21-728 limits assumed): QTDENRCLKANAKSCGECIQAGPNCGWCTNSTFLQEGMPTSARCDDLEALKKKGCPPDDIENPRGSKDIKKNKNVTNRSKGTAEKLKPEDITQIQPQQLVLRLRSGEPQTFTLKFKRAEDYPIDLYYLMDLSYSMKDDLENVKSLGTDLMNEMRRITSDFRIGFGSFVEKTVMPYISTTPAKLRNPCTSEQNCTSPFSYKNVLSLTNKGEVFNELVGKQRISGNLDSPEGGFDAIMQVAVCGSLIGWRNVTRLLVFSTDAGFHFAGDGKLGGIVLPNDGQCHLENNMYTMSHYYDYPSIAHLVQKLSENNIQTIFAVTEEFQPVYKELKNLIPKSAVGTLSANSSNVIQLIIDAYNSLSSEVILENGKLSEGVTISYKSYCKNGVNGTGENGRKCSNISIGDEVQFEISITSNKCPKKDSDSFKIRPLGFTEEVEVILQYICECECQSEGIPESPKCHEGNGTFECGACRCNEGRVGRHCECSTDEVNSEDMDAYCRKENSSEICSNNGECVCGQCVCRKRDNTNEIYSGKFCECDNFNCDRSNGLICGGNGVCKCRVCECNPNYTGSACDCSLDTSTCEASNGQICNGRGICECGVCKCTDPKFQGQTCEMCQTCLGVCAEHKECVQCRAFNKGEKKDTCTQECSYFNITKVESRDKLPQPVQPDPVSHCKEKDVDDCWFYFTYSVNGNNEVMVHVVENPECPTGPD
T3 sequence (P06756 31-992 limits assumed): as the sequence (P06756 31-992 limits assumed) above
T3 sequence (P26012 43-684 limits assumed): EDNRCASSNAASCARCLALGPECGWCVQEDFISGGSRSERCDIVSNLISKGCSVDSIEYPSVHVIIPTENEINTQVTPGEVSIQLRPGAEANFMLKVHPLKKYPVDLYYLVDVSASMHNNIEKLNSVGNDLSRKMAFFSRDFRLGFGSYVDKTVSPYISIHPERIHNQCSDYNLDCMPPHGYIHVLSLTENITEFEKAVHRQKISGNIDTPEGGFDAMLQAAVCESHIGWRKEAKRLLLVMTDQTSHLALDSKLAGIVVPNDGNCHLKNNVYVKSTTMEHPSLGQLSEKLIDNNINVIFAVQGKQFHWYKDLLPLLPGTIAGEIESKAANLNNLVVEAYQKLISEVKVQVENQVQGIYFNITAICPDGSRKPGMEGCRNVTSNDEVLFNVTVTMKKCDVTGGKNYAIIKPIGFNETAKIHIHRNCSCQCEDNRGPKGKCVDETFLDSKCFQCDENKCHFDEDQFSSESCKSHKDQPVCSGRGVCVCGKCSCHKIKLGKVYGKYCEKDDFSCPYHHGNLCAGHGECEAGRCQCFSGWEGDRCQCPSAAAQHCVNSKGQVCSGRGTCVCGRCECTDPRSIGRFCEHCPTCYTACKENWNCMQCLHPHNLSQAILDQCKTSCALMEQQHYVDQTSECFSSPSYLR
T2 sequence (P06756 31-992 limits assumed): as the sequence (P06756 31-992 limits assumed) above
T2 sequence (P18564 22-707 limits assumed): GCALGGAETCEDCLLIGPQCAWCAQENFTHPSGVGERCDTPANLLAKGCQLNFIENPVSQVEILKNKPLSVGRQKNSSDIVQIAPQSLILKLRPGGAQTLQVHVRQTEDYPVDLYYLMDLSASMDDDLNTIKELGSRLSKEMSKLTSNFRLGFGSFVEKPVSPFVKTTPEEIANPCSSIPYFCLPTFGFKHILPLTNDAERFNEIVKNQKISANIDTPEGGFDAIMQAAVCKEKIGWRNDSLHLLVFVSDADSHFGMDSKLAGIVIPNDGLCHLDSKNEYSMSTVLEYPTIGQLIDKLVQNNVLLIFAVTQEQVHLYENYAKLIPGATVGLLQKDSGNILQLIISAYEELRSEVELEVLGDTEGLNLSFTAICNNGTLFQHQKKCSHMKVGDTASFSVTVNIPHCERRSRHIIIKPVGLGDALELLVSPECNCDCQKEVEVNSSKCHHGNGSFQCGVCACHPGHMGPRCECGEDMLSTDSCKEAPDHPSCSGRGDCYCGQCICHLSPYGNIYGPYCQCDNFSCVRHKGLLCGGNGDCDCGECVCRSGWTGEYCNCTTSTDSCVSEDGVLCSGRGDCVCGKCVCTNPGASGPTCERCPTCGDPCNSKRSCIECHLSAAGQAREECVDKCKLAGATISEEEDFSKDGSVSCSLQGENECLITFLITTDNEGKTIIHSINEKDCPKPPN
T1 sequence (P08648 42-995 limits assumed): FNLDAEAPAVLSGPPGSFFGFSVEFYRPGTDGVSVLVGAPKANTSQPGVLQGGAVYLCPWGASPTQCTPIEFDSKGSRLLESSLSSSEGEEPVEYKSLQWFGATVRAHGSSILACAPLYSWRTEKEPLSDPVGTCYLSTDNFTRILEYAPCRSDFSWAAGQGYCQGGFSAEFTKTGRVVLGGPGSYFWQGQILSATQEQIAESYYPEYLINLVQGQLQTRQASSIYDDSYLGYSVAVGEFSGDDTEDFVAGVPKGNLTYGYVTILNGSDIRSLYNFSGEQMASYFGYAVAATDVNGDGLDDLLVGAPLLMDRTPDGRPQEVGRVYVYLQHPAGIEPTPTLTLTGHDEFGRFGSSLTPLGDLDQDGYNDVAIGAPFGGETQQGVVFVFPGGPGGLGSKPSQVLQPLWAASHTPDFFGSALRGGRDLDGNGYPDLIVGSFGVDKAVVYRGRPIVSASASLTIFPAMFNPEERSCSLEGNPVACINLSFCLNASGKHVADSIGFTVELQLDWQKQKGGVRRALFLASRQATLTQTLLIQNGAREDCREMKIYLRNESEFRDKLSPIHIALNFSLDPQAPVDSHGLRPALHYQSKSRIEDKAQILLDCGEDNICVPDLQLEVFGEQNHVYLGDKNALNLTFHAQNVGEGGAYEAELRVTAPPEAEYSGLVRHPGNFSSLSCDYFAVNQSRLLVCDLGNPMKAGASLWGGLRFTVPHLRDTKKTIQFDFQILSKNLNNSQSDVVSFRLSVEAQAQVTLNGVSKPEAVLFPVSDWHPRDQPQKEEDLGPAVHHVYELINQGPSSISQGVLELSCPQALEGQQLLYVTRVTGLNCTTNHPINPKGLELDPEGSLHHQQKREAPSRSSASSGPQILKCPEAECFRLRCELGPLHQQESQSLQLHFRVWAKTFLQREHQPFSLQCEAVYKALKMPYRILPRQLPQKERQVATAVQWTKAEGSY
T1 sequence (P05556 21-728 limits assumed): as the sequence (P05556 21-728 limits assumed) above

For the molecule `COc1cc(C(CC(=O)O)Cc2cc(OCCc3ccc4c(n3)NCCC4)n(C)n2)cc(C23CC4CC(CC(C4)C2)C3)c1OCc1ccccc1` (stereo not shown) [Example 13, 3-[3-(1-adamantyl)-4-benzyloxy-5-methoxy-phenyl]-4-[1-methyl-5-[2-(5,6,7,8-tetrahydro-1,8-naphthyridin-2-yl)ethoxy]pyrazol-3-yl]butanoic acid], the IC50 in experiment [1] worked out at 210 nM; in experiment [2] it was 170 nM; in experiment [3], 540 nM; in experiment [4] it was 21 nM.
In the case of `COc1cc(C(CC(=O)O)Cc2cc(OCCc3ccc4c(n3)NCCC4)n(C)n2)cc(C23CC4CC(CC(C4)C2)C3)c1OC` (stereo not shown) [Example 14, 3-[3-(1-adamantyl)-4,5-dimethoxy-phenyl]-4-[1-methyl-5-[2-(5,6,7,8-tetrahydro-1,8-naphthyridin-2-yl)ethoxy]pyrazol-3-yl]butanoic acid], the half-inhibitory concentration (IC50) in experiment [1] was 47 nM; in experiment [2], 170 nM; in experiment [3] it was 170 nM; in experiment [4], 9 nM.
`Cn1nc(CC(CC(=O)O)c2cc3c(c(C(C)(C)C)c2)OCO3)cc1OCCc1ccc2c(n1)NCCC2` (stereo not shown) [Example 15]: the IC50 was 28 nM in experiment [1], 60 nM in experiment [2], 120 nM in experiment [3] and 3 nM in experiment [4].
With `Cn1nc(CC(CC(=O)O)c2cc3c(c(C(C)(C)C)c2)OCCO3)cc1OCCc1ccc2c(n1)NCCC2` (stereo not shown) [Example 16, 3-(8-(tert-butyl)-2,3-dihydrobenzo[b][1,4]dioxin-6-yl)-4-(1-methyl −5-(2-(5,6,7,8-tetrahydro-1,8-naphthyridin-2-yl)ethoxy)-1H-pyrazol-3-yl) butanoic acid], the IC50 in experiment [1] stood at 18 nM; in experiment [2], 19 nM; in experiment [3], 41 nM; in experiment [4] it was 5 nM.
For the molecule `Cn1nc(CC(CC(=O)O)c2cc(C(C)(C)C)ccc2Br)cc1OCCc1ccc2c(n1)NCCC2` (stereo not shown) [Example 17, 3-(2-bromo-5-(tert-butyl)phenyl)-4-(1-methyl-5-(2-(5,6,7,8-tetrahydro-1,8-naphthyridin-2-yl)ethoxy)-1H-pyrazol-3-yl)butanoic acid], the half-inhibitory concentration (IC50) is 120 nM in experiment [1], 1900 nM in experiment [2], 110 nM in experiment [3] and 14 nM in experiment [4].
The corresponding values for `Cn1nc(CC(CC(=O)O)c2cc(C(C)(C)C)ccc2C#N)cc1OCCc1ccc2c(n1)NCCC2` (stereo not shown) [Example 18, 3-(5-(tert-butyl)-2-cyanophenyl)-4-(1-methyl-5-(2-(5,6,7,8-tetrahydro-1,8-naphthyridin-2-yl)ethoxy)-1H-pyrazol-3-yl)butanoic acid] are 4 nM, 12 nM, 3 nM and 5 nM.
On to `Cn1nc(CC(CC(=O)O)c2cc(C(C)(C)C)ccc2F)cc1OCCc1ccc2c(n1)NCCC2` (stereo not shown) [Example 19, 3-(5-(tert-butyl)-2-fluorophenyl)-4-(1-methyl-5-(2-(5,6,7,8-tetrahydro-1,8-naphthyridin-2-yl)ethoxy)-1H-pyrazol-3-yl)butanoic acid], for which the IC50 in experiment [1] was 10 nM; in experiment [2], 180 nM; in experiment [3], 58 nM; in experiment [4], 7 nM.
For the molecule `Cn1nc(CC(CC(=O)O)c2cc(C(C)(C)C)ccc2OC(F)(F)F)cc1OCCc1ccc2c(n1)NCCC2` (stereo not shown) [Example 20, 3-(5-(tert-butyl)-2-(trifluoromethoxy)phenyl)-4-(1-methyl-5-(2-(5,6,7,8-tetrahydro-1,8-naphthyridin-2-yl)ethoxy)-1H-pyrazol-3-yl)butanoic acid], the IC50 was 9 nM in experiment [1], 220 nM in experiment [2], 67 nM in experiment [3] and 6 nM in experiment [4].
Take `COc1ccc(C2(C(F)F)CC2)cc1C(CC(=O)O)Cc1cc(OCCc2ccc3c(n2)NCCC3)n(C)n1` (stereo not shown) [Example 21, 3-[5-[1-(difluoromethyl)cyclopropyl]-2-methoxy-phenyl]-4-[1-methyl-5-[2-(5,6,7,8-tetrahydro-1,8-naphthyridin-2-yl)ethoxy]pyrazol-3-yl]butanoic acid]: the IC50 turned out to be 29 nM in experiment [1], 320 nM in experiment [2], 140 nM in experiment [3] and 10 nM in experiment [4].
As to `COc1ccc(C(C)(C)O)cc1C(CC(=O)O)Cc1cc(OCCc2ccc3c(n2)NCCC3)n(C)n1` (stereo not shown) [Example 22, 3-(5-(2-hydroxypropan-2-yl)-2-methoxyphenyl)-4-(1-methyl-5-(2-(5,6,7,8-tetrahydro-1,8-naphthyridin-2-yl)ethoxy)-1H-pyrazol-3-yl)butanoic acid], the IC50 in experiment [1] was determined as 2 nM; in experiment [2], 160 nM; in experiment [3], 79 nM; in experiment [4], 3 nM.
Turning to `COc1ccc(C2COC2)cc1C(CC(=O)O)Cc1cc(OCCc2ccc3c(n2)NCCC3)n(C)n1` (stereo not shown) [Example 23, 3-[2-methoxy-5-(oxetan-3-yl)phenyl]-4-[1-methyl-5-[2-(5,6,7,8-tetrahydro-1,8-naphthyridin-2-yl)ethoxy]pyrazol-3-yl]butanoic acid], the IC50 in experiment [1] was determined as 36 nM; in experiment [2] it was 140 nM; in experiment [3] it was 190 nM; in experiment [4] it was 8 nM.
The corresponding values for `COc1ccc(S(F)(F)(F)(F)F)cc1C(CC(=O)O)Cc1cc(OCCc2ccc3c(n2)NCCC3)n(C)n1` (stereo not shown) [Example 24, 3-[2-methoxy-5-(pentafluoro-sulfanyl)phenyl]-4-[1-methyl-5-[2-(5,6,7,8-tetrahydro-1,8-naphthyridin-2-yl)ethoxy]pyrazol-3-yl]butanoic acid] are 25 nM, 48 nM, 33 nM and 9 nM.
For `COc1c(C(C)C)cc(C(CC(=O)O)Cc2cc(OCCc3ccc4c(n3)NCCC4)n(C)n2)cc1C(C)C` (stereo not shown) [Example 25, 3-(3,5-diisopropyl-4-methoxy-phenyl)-4-[1-methyl-5-[2-(5,6,7,8-tetrahydro-1,8-naphthyridin-2-yl)ethoxy]pyrazol-3-yl]butanoic acid], the IC50 came to 2 nM in experiment [1], 160 nM in experiment [2], 18 nM in experiment [3] and 6 nM in experiment [4].
